# Experimental data: patent US7214690B2, “Tricyclic quinolinone and tricyclic quinoline androgen receptor modulator compounds and methods” (Ligand Pharmaceuticals Incorporated, priority 2001, dated 2007)
# pIC50: −log10 of the molar value.
# Target: T1, GR (Homo sapiens, UniProt P04150)
# T1 construct: expressed in transfected cells; host or cells: background cell substantially devoid of endogenous IRs (CV-1 described for the co-transfection assay)
# T1 sequence (P04150 1-777): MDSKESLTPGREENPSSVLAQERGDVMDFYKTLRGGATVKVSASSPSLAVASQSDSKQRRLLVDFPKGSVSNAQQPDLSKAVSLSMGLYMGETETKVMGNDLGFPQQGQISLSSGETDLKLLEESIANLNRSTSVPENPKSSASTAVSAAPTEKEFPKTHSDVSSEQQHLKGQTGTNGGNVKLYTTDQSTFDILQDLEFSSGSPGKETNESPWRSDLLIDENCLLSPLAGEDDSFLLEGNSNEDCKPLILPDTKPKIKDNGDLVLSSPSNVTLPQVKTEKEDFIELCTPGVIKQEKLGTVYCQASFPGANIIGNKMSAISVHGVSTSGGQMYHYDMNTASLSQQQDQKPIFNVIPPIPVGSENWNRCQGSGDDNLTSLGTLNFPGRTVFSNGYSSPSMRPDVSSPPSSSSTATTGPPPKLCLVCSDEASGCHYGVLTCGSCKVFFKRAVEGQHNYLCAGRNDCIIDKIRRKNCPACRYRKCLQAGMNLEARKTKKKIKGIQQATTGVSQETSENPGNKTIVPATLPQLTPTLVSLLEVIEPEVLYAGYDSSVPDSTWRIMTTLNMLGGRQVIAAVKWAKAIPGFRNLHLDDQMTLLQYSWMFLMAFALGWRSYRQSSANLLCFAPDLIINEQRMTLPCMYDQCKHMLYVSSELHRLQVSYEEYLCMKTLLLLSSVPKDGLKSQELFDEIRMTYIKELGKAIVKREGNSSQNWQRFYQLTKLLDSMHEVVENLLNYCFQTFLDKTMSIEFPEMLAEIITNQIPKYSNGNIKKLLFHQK
# Assay: co-transfection assay, GR
# Assay type: cell-based
# Protocol: CV-1 cells (African green monkey kidney fibroblasts) were cultured in the presence of Dulbecco's Modified Eagle Medium (DMEM) supplemented with 10% charcoal resin-stripped fetal bovine serum (CH-FBS) then transferred to 96-well microtiter plates one day prior to transfection.
# Three to four replicates were used for each sample.
# After 40 hours, the cells were washed with PBS, lysed with a Triton X-100-based buffer and assayed for LUC and β-Gal activities using a luminometer or spectrophotometer, respectively. For each replicate, the normalized response (NR) was calculated as: LUC response/β-Gal rate • where β-Gal rate=β-Gal/β-Gal incubation time.
row,Structure (SMILES),pIC50
1,"C=CCN1c2ccc3[nH]c(=O)cc(C(F)(F)F)c3c2OC[C@H]1CC [Compound 114, (3R)-4-Allyl-3-ethyl-2,3,4,7-tetrahydro-10-(trifluoromethyl)-8H-[1,4]oxazino[2,3-f]quinolin-8-one]",5.23
2,"CC(C)[C@@H]1COc2c(ccc3[nH]c(=O)cc(C(F)(F)F)c23)N1CC(F)(F)Cl [Compound 124, (3R)-4-(2-Chloro-2,2-difluoroethyl)-2,3,4,7-tetrahydro-3-isopropyl-10-(trifluoromethyl)-8H-[1,4]oxazino[2,3-f]quinolin-8-one]",5.62
